According to ChEMBL document CHEMBL1151525, “Thromboxane receptor antagonism combined with thromboxane synthase inhibition. 7. pyridinylalkyl-substituted arylsulfonylamino arylalkanoic acids” (Bioorg Med Chem Lett, 1992):

How the values were obtained:
Homo sapiens [1] = species on record: Homo sapiens; experiment: Inhibitory concentration against U 46619 induced aggregation of human washed platelets(WP); type: functional
Thromboxane-A synthase = molecular target: T1, Thromboxane-A synthase (Homo sapiens, UniProt P24557); experiment: Inhibitory concentration against thromboxane synthase enzyme from human microsomal platelet preparation
T1 sequence (P24557 whole entry): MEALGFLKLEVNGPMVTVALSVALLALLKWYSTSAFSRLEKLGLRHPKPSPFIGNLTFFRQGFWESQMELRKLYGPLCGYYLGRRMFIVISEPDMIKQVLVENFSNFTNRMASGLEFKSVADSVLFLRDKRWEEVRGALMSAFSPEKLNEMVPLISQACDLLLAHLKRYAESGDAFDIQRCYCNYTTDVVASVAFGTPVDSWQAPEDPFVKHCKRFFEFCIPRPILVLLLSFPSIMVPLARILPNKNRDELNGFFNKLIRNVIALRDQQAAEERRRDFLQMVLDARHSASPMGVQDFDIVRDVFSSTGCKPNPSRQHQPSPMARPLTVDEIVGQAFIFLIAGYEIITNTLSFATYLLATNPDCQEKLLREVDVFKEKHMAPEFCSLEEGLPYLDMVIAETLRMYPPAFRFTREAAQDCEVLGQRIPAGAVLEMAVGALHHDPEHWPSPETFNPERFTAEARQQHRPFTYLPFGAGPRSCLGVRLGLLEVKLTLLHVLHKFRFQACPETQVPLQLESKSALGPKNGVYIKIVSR

Homo sapiens [2] = species on record: Homo sapiens; experiment: Inhibitory concentration against U 46619 induced aggregation of human platelet rich plasma(PRP); type: functional
Cavia porcellus = experiment: Ratio of EC50 for drug treated animals over that of control was determined for U-46,619 induced ex-vivo platelet aggregation 1 hr post dosing of 10 mg/kg orally; type: functional; conditions: route oral

Row | IC50 (Homo sapiens [1]) [nM] | IC50 (Thromboxane-A synthase) [nM] | IC50 (Homo sapiens [2]) [nM] | SMILES | Concentration ratio (Cavia porcellus)
1 | 1130 | 7 | 10700 | O=C(O)Cc1cc(CCCNS(=O)(=O)c2ccc(Cl)cc2)cc(CCc2cccnc2)c1 | –
2 | 15 | 15 | 300 | O=C(O)CCc1cc(CCNS(=O)(=O)c2ccc(Cl)cc2)ccc1CCc1cccnc1 | 52
3 | 380 | 43 | – | O=C(O)CCc1ccc(CNS(=O)(=O)c2ccc(Cl)cc2)c(CCc2cccnc2)c1 | –

The next lines start with the molecule.

Row | SMILES | IC50 (Homo sapiens [1]) [nM] | IC50 (Thromboxane-A synthase) [nM] | IC50 (Homo sapiens [2]) [nM] | Concentration ratio (Cavia porcellus)
4 | O=C(O)CCc1ccc(CCCNS(=O)(=O)c2ccc(Cl)cc2)cc1CCc1cccnc1 | 230 | 26 | – | –
5 | COC(=O)CCc1cc(CCNS(=O)(=O)c2ccc(Cl)cc2)cc(CCc2cccnc2)c1 | 3 | 9 | 170 | >100
